Test results taken from patent US20260306640A1, “TECHNOLOGIES TARGETING CELL STATES” (Auron Therapeutics, Inc., priority 2023, published 2026).

What was measured:
KAT2B = KAT2B (Homo sapiens, UniProt Q92831); assay: KAT2B degradation, Western Blot (Jess), NCI-H1048 cells; format: cell-based; parameters: degrader, Western blot (Jess); settings: NCI-H1048 cells, KAT2B, 24 h, Western Blot, vs DMSO; read-out: KAT2B NCI-H1048 DC50
How it was run: (§1)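 DC50 came from protein loss relative to DMSO, measured by Jess capillary immunoblot of RIPA lysates with chemiluminescence read-out. Before lysis, NCI-H1048 cells in 5% FBS HITES medium were exposed to compound for 24 h at 37° C.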

KAT2A = KAT2A (Homo sapiens, UniProt Q92830); assay: KAT2A degradation, Western Blot (Jess), NCI-H1048 cells; format: cell-based; parameters: degrader, Western blot (Jess); settings: NCI-H1048 cells, KAT2A, 24 h, Western Blot, vs DMSO; read-out: KAT2A NCI-H1048 DC50
KAT2A, sequence (Q92830 whole entry): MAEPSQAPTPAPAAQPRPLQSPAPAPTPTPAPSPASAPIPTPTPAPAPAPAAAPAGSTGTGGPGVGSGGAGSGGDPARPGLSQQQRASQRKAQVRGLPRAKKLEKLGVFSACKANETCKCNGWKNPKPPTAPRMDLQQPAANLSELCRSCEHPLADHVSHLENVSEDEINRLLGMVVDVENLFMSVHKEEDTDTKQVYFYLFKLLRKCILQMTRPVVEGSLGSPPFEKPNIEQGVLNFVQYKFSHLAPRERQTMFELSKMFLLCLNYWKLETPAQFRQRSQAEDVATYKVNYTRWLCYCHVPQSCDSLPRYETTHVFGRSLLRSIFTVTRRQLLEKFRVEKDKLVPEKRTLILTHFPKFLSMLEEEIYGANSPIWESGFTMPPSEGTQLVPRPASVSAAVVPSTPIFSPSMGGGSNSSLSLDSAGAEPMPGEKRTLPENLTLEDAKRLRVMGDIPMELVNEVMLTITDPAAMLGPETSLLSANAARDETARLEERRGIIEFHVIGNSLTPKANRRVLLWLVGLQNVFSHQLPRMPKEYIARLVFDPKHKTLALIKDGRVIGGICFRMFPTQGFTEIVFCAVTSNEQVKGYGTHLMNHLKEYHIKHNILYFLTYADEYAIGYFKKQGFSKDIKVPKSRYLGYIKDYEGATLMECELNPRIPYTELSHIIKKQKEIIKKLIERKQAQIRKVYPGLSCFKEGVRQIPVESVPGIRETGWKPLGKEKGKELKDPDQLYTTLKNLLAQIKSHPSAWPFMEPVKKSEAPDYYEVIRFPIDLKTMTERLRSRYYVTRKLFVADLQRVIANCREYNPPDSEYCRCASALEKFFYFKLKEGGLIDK
How it was run: as §1

KAT2B, sequence (Q92831 whole entry): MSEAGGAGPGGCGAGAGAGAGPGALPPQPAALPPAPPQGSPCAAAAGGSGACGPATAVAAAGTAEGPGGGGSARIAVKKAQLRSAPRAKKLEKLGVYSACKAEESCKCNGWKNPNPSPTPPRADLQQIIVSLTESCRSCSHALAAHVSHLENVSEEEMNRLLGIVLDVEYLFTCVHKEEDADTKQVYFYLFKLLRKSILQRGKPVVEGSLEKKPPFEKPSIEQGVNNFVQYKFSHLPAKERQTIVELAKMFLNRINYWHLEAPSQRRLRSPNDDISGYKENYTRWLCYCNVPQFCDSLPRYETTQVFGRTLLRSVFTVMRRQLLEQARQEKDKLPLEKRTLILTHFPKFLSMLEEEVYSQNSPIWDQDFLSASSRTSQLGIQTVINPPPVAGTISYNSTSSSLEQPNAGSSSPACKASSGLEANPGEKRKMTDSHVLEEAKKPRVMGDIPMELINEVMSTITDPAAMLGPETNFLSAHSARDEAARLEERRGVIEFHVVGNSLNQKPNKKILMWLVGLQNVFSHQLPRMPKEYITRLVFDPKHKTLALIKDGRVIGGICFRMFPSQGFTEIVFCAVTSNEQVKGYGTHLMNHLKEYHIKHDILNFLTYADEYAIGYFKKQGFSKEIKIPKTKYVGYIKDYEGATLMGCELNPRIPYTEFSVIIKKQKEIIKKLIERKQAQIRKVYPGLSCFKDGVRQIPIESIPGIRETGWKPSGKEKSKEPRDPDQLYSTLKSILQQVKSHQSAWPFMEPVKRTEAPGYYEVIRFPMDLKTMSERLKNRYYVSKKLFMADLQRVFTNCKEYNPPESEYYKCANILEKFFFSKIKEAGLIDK

SMILES | DC50 (KAT2B) | DC50 (KAT2A)
Cc1cc(N2CCC3(CCN(Cc4ccc([C@H]5C[C@@H](Nc6cnn(C)c(=O)c6C)CN(C)C5)cc4)CC3)CC2)ccc1C1CCC(=O)NC1=O (some centres unmarked) [Compound 339] | < 1 nM | < 1 nM
CN1C[C@H](Nc2cnn(C)c(=O)c2Cl)C[C@H](c2ccc(CN3CCC4(CC3)CCN(c3ccc(C5CCC(=O)NC5=O)c(F)c3)CC4)cc2)C1 (some centres unmarked) [Compound 340] | < 1 nM | < 1 nM
CN1C[C@H](Nc2cnn(C)c(=O)c2Cl)C[C@H](c2ccc(CN3CCN(c4ccc(F)c(C5CCC(=O)NC5=O)c4)CC3)cc2)C1 (some centres unmarked) [Compound 341] | 1 to 30 nM | < 1 nM
Cc1c(N[C@@H]2C[C@H](c3ccc(CN4CCN(c5ccc(F)c(C6CCC(=O)NC6=O)c5)CC4)cc3)CN(C)C2)cnn(C)c1=O (some centres unmarked) [Compound 342] | 1 to 30 nM | < 1 nM
CN1C[C@H](Nc2cnn(C)c(=O)c2Cl)C[C@H](c2ccc(CN3CCC4(CC3)CCN(c3ccc(C5CCC(=O)NC5=O)c(C(F)(F)F)c3)CC4)cc2)C1 (some centres unmarked) [Compound 343] | > 30 nM | > 30 nM
CN1C[C@H](Nc2cnn(C)c(=O)c2Cl)C[C@H](c2ccc(CN3CCN(c4cncc(C5CCC(=O)NC5=O)c4)CC3)cc2)C1 (some centres unmarked) [Compound 344] | > 30 nM | > 30 nM
Cc1c(N[C@@H]2C[C@H](c3ccc(CN4CCN(c5cncc(C6CCC(=O)NC6=O)c5)CC4)cc3)CN(C)C2)cnn(C)c1=O (some centres unmarked) [Compound 346] | > 30 nM | > 30 nM
CN1C[C@H](Nc2cnn(C)c(=O)c2Cl)C[C@H](c2ccc(CN3CCN(c4cccc(C5CCC(=O)NC5=O)c4)CC34CC4)cc2)C1 (some centres unmarked) [Compound 347] | > 30 nM | 1 to 30 nM
CN1C[C@H](Nc2cnn(C)c(=O)c2Br)C[C@H](c2ccc(CN3CCN(c4cccc(C5CCC(=O)NC5=O)c4)CC34CC4)cc2)C1 (some centres unmarked) [Compound 348] | 1 to 30 nM | < 1 nM
Cc1c(N[C@@H]2C[C@H](c3ccc(CN4CCN(c5cccc(C6CCC(=O)NC6=O)c5)CC45CC5)cc3)CN(C)C2)cnn(C)c1=O (some centres unmarked) [Compound 349] | > 30 nM | < 1 nM
CN1C[C@H](Nc2cnn(C)c(=O)c2Br)C[C@H](c2ccc(CN3CCN(c4ccnc(C5CCC(=O)NC5=O)c4)CC3)cc2)C1 (some centres unmarked) [Compound 350] | > 30 nM | 1 to 30 nM
CN1C[C@H](Nc2cnn(C)c(=O)c2Cl)C[C@H](c2ccc(CN3CCN(c4ccnc(C5CCC(=O)NC5=O)c4)CC3)cc2)C1 (some centres unmarked) [Compound 351] | > 30 nM | 1 to 30 nM
Cc1c(N[C@@H]2C[C@H](c3ccc(CN4CCN(c5ccnc(C6CCC(=O)NC6=O)c5)CC4)cc3)CN(C)C2)cnn(C)c1=O (some centres unmarked) [Compound 352] | > 30 nM | 1 to 30 nM
CN1C[C@H](Nc2cnn(C)c(=O)c2Br)C[C@H](c2ccc(CN3C4CC3CN(c3cccc(C5CCC(=O)NC5=O)c3)C4)cc2)C1 (some centres unmarked) [Compound 353] | > 30 nM | < 1 nM
CN1C[C@H](Nc2cnn(C)c(=O)c2Cl)C[C@H](c2ccc(CN3C4CC3CN(c3cccc(C5CCC(=O)NC5=O)c3)C4)cc2)C1 (some centres unmarked) [Compound 354] | > 30 nM | 1 to 30 nM
CN1C[C@H](Nc2cnn(C)c(=O)c2Br)C[C@H](c2ccc(CN3CCN(c4cc(C5CCC(=O)NC5=O)ccn4)CC3)cc2)C1 (some centres unmarked) [Compound 355] | > 30 nM | 1 to 30 nM
CN1C[C@H](Nc2cnn(C)c(=O)c2Cl)C[C@H](c2ccc(CN3CCN(c4cc(C5CCC(=O)NC5=O)ccn4)CC3)cc2)C1 (some centres unmarked) [Compound 356] | > 30 nM | 1 to 30 nM
Cc1c(N[C@@H]2C[C@H](c3ccc(CN4CCN(c5cc(C6CCC(=O)NC6=O)ccn5)CC4)cc3)CN(C)C2)cnn(C)c1=O (some centres unmarked) [Compound 357] | > 30 nM | 1 to 30 nM
CN1C[C@H](Nc2cnn(C)c(=O)c2Br)C[C@H](c2ccc(CN3CCN(c4cc(C5CCC(=O)NC5=O)c(F)cc4F)CC3)cc2)C1 (some centres unmarked) [Compound 358] | > 30 nM | > 30 nM
CN1C[C@H](Nc2cnn(C)c(=O)c2Cl)C[C@H](c2ccc(CN3CCN(c4cc(C5CCC(=O)NC5=O)c(F)cc4F)CC3)cc2)C1 (some centres unmarked) [Compound 359] | > 30 nM | > 30 nM
Cc1c(N[C@@H]2C[C@H](c3ccc(CN4CCN(c5cc(C6CCC(=O)NC6=O)c(F)cc5F)CC4)cc3)CN(C)C2)cnn(C)c1=O (some centres unmarked) [Compound 360] | > 30 nM | > 30 nM
CN1C[C@H](Nc2cnn(C)c(=O)c2Cl)C[C@H](c2ccc(CN3CCN(c4cccc(C5CCC(=O)NC5=O)c4)CC3)cc2)C1 (some centres unmarked) [Compound 361] | 1 to 30 nM | < 1 nM
Cc1cc(N2CCC3(CCN(C(=O)c4ccc([C@H]5C[C@@H](Nc6cnn(C)c(=O)c6Br)CN(C)C5)cc4)CC3)CC2)ccc1OC1CCC(=O)NC1=O (some centres unmarked) [Compound 364] | > 30 nM | < 1 nM

SMILES | DC50 (KAT2B) | DC50 (KAT2A)
Cc1cc(N2CCC3(CCN(C(=O)c4ccc([C@H]5C[C@@H](Nc6cnn(C)c(=O)c6Cl)CN(C)C5)cc4)CC3)CC2)ccc1OC1CCC(=O)NC1=O (some centres unmarked) [Compound 365] | < 1 nM | < 1 nM
CN1C[C@H](Nc2cnn(C)c(=O)c2Br)C[C@H](c2ccc(C(=O)N3CCC4(CC3)CCN(c3ccc(OC5CCC(=O)NC5=O)cn3)CC4)cc2)C1 (some centres unmarked) [Compound 366] | 1 to 30 nM | < 1 nM
CN1C[C@H](Nc2cnn(C)c(=O)c2Cl)C[C@H](c2ccc(C(=O)N3CCC4(CC3)CCN(c3ccc(OC5CCC(=O)NC5=O)cn3)CC4)cc2)C1 (some centres unmarked) [Compound 367] | > 30 nM | < 1 nM
CN1CC(Nc2cnn(C)c(=O)c2Cl)CC(c2ccc(CN3CCN(c4cccc(OC5CCC(=O)NC5=O)c4)CC3)cc2)C1 (centres unmarked) [Compound 368] | > 30 nM | 1 to 30 nM
CN1C[C@H](Nc2cnn(C)c(=O)c2Cl)C[C@H](c2ccc(CN3C4CC3CN(c3cccc(C5CCC(=O)NC5=O)c3)C4)cc2)C1 (some centres unmarked) [Compound 369] | > 30 nM | 1 to 30 nM
CN1C[C@H](Nc2cnn(C)c(=O)c2Cl)C[C@H](c2ccc(C(=O)N3CCC4(CC3)CCN(c3ccc(NC5CCC(=O)NC5=O)c(F)c3)CC4)cc2)C1 (some centres unmarked) [Compound 372] | 1 to 30 nM | < 1 nM
CN1C[C@H](Nc2cnn(C)c(=O)c2Br)C[C@H](c2ccc(C(=O)N3CCC4(CC3)CCN(c3ccc(NC5CCC(=O)NC5=O)c(F)c3)CC4)cc2)C1 (some centres unmarked) [Compound 373] | 1 to 30 nM | < 1 nM
CN1C[C@H](Nc2cnn(C)c(=O)c2Br)C[C@H](c2ccc(C(=O)N3CCC4(CC3)CCN(c3ccc5c(N6CCC(=O)NC6=O)nccc5c3)CC4)cc2)C1 [Compound 374] | > 30 nM | < 1 nM
CN1C[C@H](Nc2cnn(C)c(=O)c2Cl)C[C@H](c2ccc(C(=O)N3CCC4(CC3)CCN(c3ccc5c(N6CCC(=O)NC6=O)nccc5c3)CC4)cc2)C1 [Compound 376] | > 30 nM | > 30 nM
CN1C[C@H](Nc2cnn(C)c(=O)c2Br)C[C@H](c2ccc(C(=O)N3CCC(c4ccc5c(C6CCC(=O)NC6=O)nccc5c4)CC3)cc2)C1 (some centres unmarked) [Compound 377] | > 30 nM | < 1 nM
Cc1c(N[C@@H]2C[C@H](c3ccc(C(=O)N4CCC(c5ccc6c(C7CCC(=O)NC7=O)cncc6c5)CC4)cc3)CN(C)C2)cnn(C)c1=O (some centres unmarked) [Compound 378] | > 30 nM | 1 to 30 nM
CN1C[C@H](Nc2cnn(C)c(=O)c2Cl)C[C@H](c2ccc(C(=O)N3CCC(c4ccc5c(C6CCC(=O)NC6=O)nccc5c4)CC3)cc2)C1 (some centres unmarked) [Compound 379] | > 30 nM | < 1 nM
CN1C[C@H](Nc2cnn(C)c(=O)c2Br)C[C@H](c2ccc(CN3CCN(c4ccc5c(C6CCC(=O)NC6=O)cncc5c4)CC3)cc2)C1 (some centres unmarked) [Compound 380] | < 1 nM | < 1 nM
CN1C[C@H](Nc2cnn(C)c(=O)c2Cl)C[C@H](c2ccc(CN3CCN(c4ccc5c(C6CCC(=O)NC6=O)cncc5c4)CC3)cc2)C1 (some centres unmarked) [Compound 381] | < 1 nM | 1 to 30 nM
CN1C[C@H](Nc2cnn(C)c(=O)c2Br)C[C@H](c2ccc(CN3CCN(c4ccc5c(C6CCC(=O)NC6=O)nccc5c4)CC3)cc2)C1 (some centres unmarked) [Compound 382] | < 1 nM | < 1 nM
CN1C[C@H](Nc2cnn(C)c(=O)c2Cl)C[C@H](c2ccc(CN3CCN(c4ccc5c(C6CCC(=O)NC6=O)nccc5c4)CC3)cc2)C1 (some centres unmarked) [Compound 383] | 1 to 30 nM | < 1 nM
CN1C[C@H](Nc2cnn(C)c(=O)c2Br)C[C@H](c2ccc(C(=O)N3CCN(c4ccc5nc(C6CCC(=O)NC6=O)ccc5c4)CC3)cc2)C1 (some centres unmarked) [Compound 384] | < 1 nM | < 1 nM
CN1C[C@H](Nc2cnn(C)c(=O)c2Br)C[C@H](c2ccc(CN3CCN(c4ccc5nc(C6CCC(=O)NC6=O)ccc5c4)CC3)cc2)C1 (some centres unmarked) [Compound 385] | 1 to 30 nM | 1 to 30 nM
CN1C[C@H](Nc2cnn(C)c(=O)c2Br)C[C@H](c2ccc(CN3CCC(c4cccc(C5CCC(=O)NC5=O)c4)C(F)(F)C3)cc2)C1 (some centres unmarked) [Compound 386] | > 30 nM | 1 to 30 nM
Cc1c(N[C@@H]2C[C@H](c3ccc(CN4CCC(c5cccc(C6CCC(=O)NC6=O)c5)C(F)(F)C4)cc3)CN(C)C2)cnn(C)c1=O (some centres unmarked) [Compound 387] | > 30 nM | < 1 nM
CN1C[C@H](Nc2cnn(C)c(=O)c2Br)C[C@H](c2ccc(CN3CCC(c4ccc5c(C6CCC(=O)NC6=O)cncc5c4)C(F)(F)C3)cc2)C1 (some centres unmarked) [Compound 388] | < 1 nM | < 1 nM
CN1C[C@H](Nc2cnn(C)c(=O)c2Cl)C[C@H](c2ccc(CN3CCC(c4ccc5c(C6CCC(=O)NC6=O)cncc5c4)C(F)(F)C3)cc2)C1 (some centres unmarked) [Compound 389] | < 1 nM | < 1 nM
CN1C[C@H](Nc2cnn(C)c(=O)c2Cl)C[C@H](c2ccc(CN3CCC(c4cccc(C5CCC(=O)NC5=O)c4)C(F)(F)C3)cc2)C1 (some centres unmarked) [Compound 390] | > 30 nM | 1 to 30 nM
